For this experiment, the target named is (α4)2(β2)3 nAChR (A2B3, high affinity) (Rattus norvegicus, UniProt P09483+P12390, P09483:H144V/P09483:Q152F/P09483:T154L). The experiment in a line: two-electrode voltage clamp, Xenopus oocytes, agonist dose-response. Format: cell-based. As to conditions: -60 mV, ND96 Ca2+ free, pH 7.5. (In general: Two-electrode voltage clamp is typically applied to oocytes expressing channels or transporters.)

Structures are written as SMILES.

Sequence of (α4)2(β2)3 nAChR (A2B3, high affinity) (P12390 25-500): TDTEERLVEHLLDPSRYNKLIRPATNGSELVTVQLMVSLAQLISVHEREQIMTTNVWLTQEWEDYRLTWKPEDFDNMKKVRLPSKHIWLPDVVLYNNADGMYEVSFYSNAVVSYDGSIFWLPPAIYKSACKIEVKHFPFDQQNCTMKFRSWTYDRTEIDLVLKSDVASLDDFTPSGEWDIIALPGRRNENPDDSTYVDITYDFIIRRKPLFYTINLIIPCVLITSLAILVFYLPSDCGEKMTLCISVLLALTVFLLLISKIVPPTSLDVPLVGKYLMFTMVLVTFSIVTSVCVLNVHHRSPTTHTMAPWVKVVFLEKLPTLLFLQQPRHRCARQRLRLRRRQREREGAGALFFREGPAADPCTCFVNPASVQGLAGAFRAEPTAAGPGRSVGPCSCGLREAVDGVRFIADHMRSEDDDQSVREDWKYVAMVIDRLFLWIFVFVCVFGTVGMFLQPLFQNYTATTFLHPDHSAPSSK
Sequence of (α4)2(β2)3 nAChR (A2B3, high affinity) (P09483 31-630 H144V/Q152F/T154L): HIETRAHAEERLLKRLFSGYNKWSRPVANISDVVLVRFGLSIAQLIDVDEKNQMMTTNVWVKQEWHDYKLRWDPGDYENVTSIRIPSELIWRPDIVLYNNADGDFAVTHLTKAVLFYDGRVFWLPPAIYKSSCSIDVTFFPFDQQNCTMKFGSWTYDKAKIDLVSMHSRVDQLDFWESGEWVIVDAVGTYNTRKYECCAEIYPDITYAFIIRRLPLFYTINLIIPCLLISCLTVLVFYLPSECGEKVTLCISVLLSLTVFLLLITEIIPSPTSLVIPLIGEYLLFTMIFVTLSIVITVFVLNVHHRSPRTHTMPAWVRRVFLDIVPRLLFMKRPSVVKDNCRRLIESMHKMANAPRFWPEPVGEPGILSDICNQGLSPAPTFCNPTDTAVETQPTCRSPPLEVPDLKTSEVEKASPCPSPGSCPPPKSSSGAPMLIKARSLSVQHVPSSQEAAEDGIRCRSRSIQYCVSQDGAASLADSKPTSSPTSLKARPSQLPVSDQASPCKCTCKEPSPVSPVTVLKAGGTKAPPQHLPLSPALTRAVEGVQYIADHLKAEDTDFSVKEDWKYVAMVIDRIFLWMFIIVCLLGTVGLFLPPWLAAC

Regarding `OCCCCC#Cc1cncc(OC[C@@H]2CCN2)c1` [sazetidine-A], the EC50 (in general, the midpoint of the concentration-response curve) amounted to 4.8 ± 0.3 nM.

Source of the values: paper PMC4033646 (ACS Chemical Biology, 2014).
